The results in this text go back to PubChem BioAssay (NCI).

Holding throughout (assay): NCI-60 cell line screen, 48 h
The test system of test [1] is LOX IMVI melanoma.
Test [2] concerns MDA-MB-231 breast.
The subject of test [3] is T-47D breast.
The test system of test [4] is MOLT-4 leukemia.
The subject of test [5] is SK-MEL-2 melanoma.
In test [6] the test system is HCT-15 colon.
Test [7] deals with HS 578T breast.
The subject of test [8] is OVCAR-8 ovarian.
Test [9] has as its system SF-268 CNS.
The test system of test [10] is HT29 colon.
Test [11] concerns SN12C renal.

Each structure is given as a SMILES string. Where “and” joins values, the source holds several entries; their conditions need not be identical. Equal entries are not always repeated.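 The compound was tested at five concentrations on cells cultured in 96-well plates, with a 48-hour exposure period. Here, GI50 denotes the concentration required for 50% inhibition of growth. TGI: concentration producing complete growth inhibition.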 Bounds are passed on as bounds.

Consider `CC(=O)c1sc2c(c1OC(=O)c1ccccc1)c(=O)n(-c1ccccc1)c(=S)n2-c1ccccc1`, for which the TGI in [1] is 5.26 µM; in [2], 22.7 µM; in test [3], more than 50.3 µM; in test [4] it was 8.3 µM; in test [5], 7.88 µM; in [6], 62.9 µM. Further, the TGI in test [7] is more than 30.7 µM; in test [8], more than 28.3 µM; in [9], more than 63 µM; in test [10], 12.9 µM; in [11], more than 42.5 µM.

For the compound `CCCCCCC(O)C(=O)OC1C2C(CC1(C)C)C(O)C13OC1C(O)C1(CO1)[C@@]23C` (some centres not stated), the TGI in test [1] is more than 100 µM; in test [2], more than 100 µM; in test [3], more than 100 µM; in test [4], more than 100 µM; in test [6], more than 100 µM; in test [7], 79.3 µM. In addition, the figures for the TGI in test [8], in test [9] and in test [11] were more than 100 µM, 53.6 µM and more than 100 µM, respectively.

Take `O=c1[nH]c(Br)nc2n[nH]nc12`: the TGI in [1] was more than 100 µM; in [2] it was more than 100 µM; in test [3], more than 100 µM; in test [4], 44.3 µM; in test [5], more than 100 µM; in test [6], more than 100 µM. For the same compound, the TGI in test [7], in test [8], in test [9], in test [10] and in test [11] was more than 100 µM each time.

`C/C1=C\CC[C@@]2(C)O[C@@H]2C[C@@H]2[C@H](C/C(C)=C/CC1)OC(=O)[C@]21CO1`: the TGI was 44.6 µM in test [1]; more than 100 µM in [2]; more than 100 µM in [3]; more than 100 µM in [4]; more than 100 µM in [5]; more than 100 µM in test [6]. Moreover, the TGI in test [7], in test [8], in test [9], in test [10] and in test [11] was more than 100 µM in each case.

For `NC1C2C=CC(C2)C1C(=O)O` (configuration not stated), the TGI in [1], in test [2], in [3], in [4], in test [5] and in test [6] was more than 100 µM in each case. The TGI in [7], in test [8], in [9], in [10] and in [11] was more than 100 µM in each case.

With `Oc1ccccc1CNCc1ccccc1O`, the TGI in [1], in test [2], in test [3], in [4], in test [5] and in test [6] was more than 100 µM each time. Moreover, the TGI in test [7], in test [8], in [9], in test [10] and in test [11] was more than 100 µM each time.

Consider `Cc1nnc(N)nc1C/C=C/C(C)Sc1ccc(Cl)cc1` (configuration not stated), for which the TGI in [1] is more than 30.4 µM; in [2] it was more than 41.9 µM; in test [3] it was 42.4 µM; in test [4] it was more than 100 µM; in test [5], 30.6 µM; in test [6], more than 54.1 µM. Further, the TGI in [7] was more than 75.9 µM; in [8], more than 56.5 µM; in test [9], 39.9 µM; in [10], 43.8 µM; in test [11], more than 80.6 µM.

Regarding `C[C@@]12C[C@@H](c3ccccc3O1)N1CCCSC1=N2`, the TGI in [1], in test [2], in test [3], in test [4], in [5] and in test [6] was more than 100 µM each time. For the same compound, the TGI in test [7], in test [8], in test [9], in [10] and in test [11] was more than 100 µM throughout.

With `CC(c1ccccc1)n1c2ccccc2c2c(N)ncnc21` (configuration not stated), the TGI was found to be 33.1 µM in test [1]; 34.9 µM in [2]; 59.6 µM in test [3]; 52.7 µM in test [4]; 45.3 µM in [5]; 59.4 µM in test [6]. The TGI in test [7] came out at 47 µM; in [8], 31.8 µM; in test [9], 43.5 µM; in test [10], 31.6 µM.

Consider `O=C(O)c1ccccc1/C=N\N(CCO)C1=NCCN1`, for which the TGI in test [1], in [2], in [3], in [4], in [5] and in test [6] was more than 100 µM each time. Further, the TGI in test [7], in test [8], in test [9], in test [10] and in test [11] was more than 100 µM each time.

For `NCCNc1ccc(NCCN)c2c1C(=O)c1c(O)ccc(O)c1C2=O`, the GI50 in test [1] was 31 nM; in [2], 146 nM; in test [5], 345 nM; in test [6], 30.3 nM; in [7] it was 225 nM; in test [8], 20 nM. Further, the figures for the GI50 in [9] and in test [10] were 22.2 nM and 92.2 nM, respectively. The TGI in test [1] was 0.252 µM and 0.214 µM; in test [2] it was 2.14 µM and 0.621 µM; in test [3] it was 2.66 µM and 4.38 µM; in [4] it was 0.216 µM; in test [5] it was 1.31 µM and 1.33 µM; in test [6], 0.391 µM and 1.26 µM. Besides, the TGI is 0.851 µM and 0.902 µM in test [7]; 0.466 µM and 0.353 µM in [8]; 0.985 µM and 3.24 µM in test [9]; 1.34 µM and 1.23 µM in [10]; 0.0799 µM and 0.0776 µM in [11].

As to `Clc1ccc2c(c1)CC1C[N+]3=C(CCCCC3)C1=C2` (configuration not stated), the TGI in test [1] was more than 100 µM; in test [2], more than 100 µM; in [3], more than 100 µM; in test [4] it was more than 100 µM; in test [5], 97 µM; in test [6], more than 100 µM. Also, the TGI in [7], in test [8], in test [9], in [10] and in test [11] was more than 100 µM each time.

As for `COc1ccc2nc3c([N+](=O)[O-])ccc4c3c(c2c1)N=CN4CCN(C)C`, the TGI in test [1] is 14.6 µM; in test [2], 10.7 µM; in test [3], 22.4 µM; in [4], 6.73 µM; in test [5], 31.6 µM; in test [6], 16.6 µM. Besides, the TGI in [7] is 28.1 µM; in test [8], 19.3 µM; in test [9] it was 19.6 µM; in [10] it was 14.4 µM; in test [11], 12.5 µM.

As to `CC1=C(C(=O)NNC(=O)c2ccccc2O)CC(C(=O)NNC(=O)c2ccccc2O)=C(C)N1`, the TGI is more than 100 µM in [1]; more than 27.9 µM in [2]; more than 32.6 µM in test [3]; more than 100 µM in test [4]; more than 100 µM in test [5]; more than 100 µM in test [6]. In addition, the TGI in [7] is more than 100 µM; in test [8] it was more than 65.3 µM; in [9], more than 100 µM; in [10] it was more than 100 µM; in test [11] it was more than 100 µM.

Turning to `O=C(Nc1ccccc1)c1cc2cc(CCl)ccc2oc1=O`, the TGI in [1], in test [2], in test [3], in test [4], in test [5] and in test [6] was more than 100 µM throughout. Further, the TGI in [7] was 63.9 µM; in [8] it was more than 100 µM; in [9], more than 100 µM; in [10] it was more than 100 µM; in test [11], more than 100 µM.

Turning to `CCOC(=O)NC(C(F)(F)F)(C(F)(F)F)P(=O)(OCC)OCC`, the TGI in test [1] is more than 100 µM; in [2], more than 100 µM; in test [3] it was more than 100 µM; in test [4], 97.9 µM; in test [6] it was more than 100 µM; in test [7], more than 100 µM. The TGI in [8], in [9], in test [10] and in test [11] was more than 100 µM in each case.

Regarding `S=C1C(CCCOCc2ccccc2)C2CCCC23CC2(CCN13)OCCS2` (configuration not stated), the TGI in [1], in [2], in test [3], in test [4], in test [5] and in test [6] was more than 10 µM in each case. Moreover, the TGI in test [7], in test [8], in [9], in [10] and in test [11] was more than 10 µM each time.

In the case of `COC(=O)N1C2C(C[C@@]1(C)C(=O)OC)c1ccccc1N2S(=O)(=O)c1ccccc1` (some centres not stated), the TGI in test [1], in [2], in test [3], in [4], in [5] and in [7] was more than 100 µM throughout. In addition, the TGI in [8], in test [9] and in [10] was more than 100 µM in each case.

As for `CC(NNC(=S)N1CCCC1)c1cccnn1` (configuration not stated), the TGI in test [1], in [2], in test [3], in test [4], in test [5] and in test [6] was more than 100 µM each time. Moreover, the TGI in test [7], in test [10] and in [11] was more than 100 µM in each case.

As for `O=C1NC(NNc2ccccc2)=N/C1=C\c1ccco1`, the TGI in test [2] is 54.7 µM; in test [3], 44.9 µM; in test [4], more than 100 µM; in test [5] it was 48.2 µM; in test [6], 33 µM; in test [7], 74.5 µM. Moreover, the TGI in [8] was determined as 32.7 µM; in [9], 75.2 µM; in test [10], 52.3 µM; in test [11], 49.9 µM.

Turning to `CC(=O)Oc1ccc(C)c2c1[C@H]1CC[C@]3(C)[C@@H](OC(C)=O)CC[C@H]3[C@@H]1CC2`, the TGI was 31.4 µM in test [1]; 33.9 µM in test [2]; 40.6 µM in test [3]; 46.5 µM in test [4]; 35.2 µM in [6]; 47 µM in test [7]. Moreover, the TGI in [8] was 58.3 µM; in [9], 80.3 µM; in test [10], 33.5 µM; in test [11], 39 µM.

Turning to `CCOC(=O)c1cc(C2CCN(Cc3ccccc3)C2=O)c(C(=O)/C=C(/C)N)[nH]1` (configuration not stated), the TGI in test [2], in test [3], in [4], in test [5], in [6] and in [7] was more than 100 µM each time. Also, the TGI in test [8], in test [9] and in [10] was more than 100 µM in each case.

`c1cc2cc(Cc3ccc4[nH]ccc4c3)ccc2[nH]1`: the TGI in test [1] turned out to be 72.3 µM; in test [2], 33.8 µM; in [3], 53.7 µM; in test [4], 41 µM; in test [5], 44.3 µM; in [6] it was 28 µM. The TGI in test [7] is 66.6 µM; in test [9], 55.7 µM; in test [10], 33.1 µM; in [11] it was 31.7 µM.

`COc1c(-c2ccc(F)cc2)oc2c(CC(=O)O)cccc2c1=O`: the TGI in test [2], in test [3], in [4], in test [5], in [7] and in [8] was more than 100 µM in each case. In addition, the TGI in [9], in test [10] and in [11] was more than 100 µM in each case.

With `Oc1c(Cl)c(Cl)c(O)c(-c2cnc(-c3ncc(-c4c(O)c(Cl)c(Cl)c(O)c4Cl)s3)s2)c1Cl`, the TGI in test [2] was 42.8 µM; in test [3], more than 100 µM; in [4] it was more than 100 µM; in [5], 54.1 µM; in test [6], 33.3 µM; in test [7], 56.5 µM. Also, the TGI in test [8] was 52.7 µM; in test [9], 55.3 µM; in test [10], more than 100 µM; in [11], 66.3 µM.
